No end group written: not given here.
Legend:
[1] = tested on: human red blood cells; assay: Hemolysis assay, minimum hemolytic concentration; conditions: for Haemolysis on hRBC, MHC: 2.5% human red blood cells (final) in 10 mM phosphate, 150 mM NaCl, pH 7.4, 25 °C, 4 h, visual inspection; for MHC human red blood cells: supplement CSV
[2] = tested on: A. baumannii ATCC19606; assay: microbe, parasite or virus in culture; conditions: for MIC A. baumannii, 12.5% MHB / MIC A. baumannii, Full MHB: A. baumannii ATCC19606, 16–20 h at 37 °C; for MIC A. baumannii, 12.5% MHB: 12.5% Müller–Hinton medium; for MIC A. baumannii, Full MHB: full Müller–Hinton medium; for MIC A. baumannii ATCC19606: supplement CSV
How it was run: (§1)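 Read-out was visible growth after MTT addition, the MIC being the lowest inhibitory peptide concentration. Bacteria grown to log phase in LB were exposed in MH medium to peptide from 64 μg/mL in twofold dilutions for 15-18h at 37°C.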

[3] = tested on: K. pneumoniae NCTC 418; assay: microbe, parasite or virus in culture; conditions: for MIC K. pneumoniae, 12.5% MHB / MIC K. pneumoniae, Full MHB: K. pneumoniae NCTC 418, 16–20 h at 37 °C; for MIC K. pneumoniae, 12.5% MHB: 12.5% Müller–Hinton medium; for MIC K. pneumoniae, Full MHB: full Müller–Hinton medium; for MIC K. pneumoniae NCTC418: supplement CSV
How it was run: as §1

[4] = tested on: P. aeruginosa PAO1; assay: microbe, parasite or virus in culture; conditions: for MIC P. aeruginosa, 12.5% MHB / MIC P. aeruginosa, Full MHB: P. aeruginosa PAO1, 16–20 h at 37 °C; for MIC P. aeruginosa, 12.5% MHB: 12.5% Müller–Hinton medium; for MIC P. aeruginosa, Full MHB: full Müller–Hinton medium; for MIC P. aeruginosa PAO1: supplement CSV
How it was run: as §1

[5] = tested on: E. coli W3110; assay: microbe, parasite or virus in culture; conditions: for MIC E. coli, 12.5% MHB / MIC E. coli, Full MHB: E. coli W3110, 16–20 h at 37 °C, broth microdilution; for MIC E. coli, 12.5% MHB: 12.5% Müller–Hinton medium; for MIC E. coli, Full MHB: full Müller–Hinton medium; for MIC E. coli W3110: supplement CSV
How it was run: as §1

[6] = tested on: S. aureus COL (MRSA); assay: microbe, parasite or virus in culture; conditions: for MIC S. aureus, 12.5% MHB / MIC S. aureus, Full MHB: S. aureus COL (MRSA), 16–20 h at 37 °C; for MIC S. aureus, 12.5% MHB: 12.5% Müller–Hinton medium; for MIC S. aureus, Full MHB: full Müller–Hinton medium; for MIC S. aureus COL (MRSA): supplement CSV
How it was run: as §1

Row | Sequence | Haemolysis on hRBC, MHC [1] [µg/mL] | MHC human red blood cells [1] [µg/mL] | MIC A. baumannii, 12.5% MHB [2] [µg/mL] | MIC A. baumannii, Full MHB [2] [µg/mL] | MIC A. baumannii ATCC19606 ([2]; 12.5% MH pH 7.4) [µg/mL] | MIC A. baumannii ATCC19606 ([2]; full MH pH 7.4) [µg/mL] | MIC K. pneumoniae, 12.5% MHB [3] [µg/mL] | MIC K. pneumoniae, Full MHB [3] [µg/mL] | MIC K. pneumoniae NCTC418 ([3]; 12.5% MH pH 7.4) [µg/mL] | MIC K. pneumoniae NCTC418 ([3]; full MH pH 7.4) [µg/mL] | MIC P. aeruginosa, 12.5% MHB [4] [µg/mL] | MIC P. aeruginosa, Full MHB [4] [µg/mL] | MIC P. aeruginosa PAO1 ([4]; 12.5% MH pH 7.4) [µg/mL] | MIC P. aeruginosa PAO1 ([4]; full MH pH 7.4) [µg/mL] | MIC E. coli, 12.5% MHB [5] [µg/mL] | MIC E. coli, Full MHB [5] [µg/mL] | MIC E. coli W3110 ([5]; 12.5% MH pH 7.4) [µg/mL] | MIC E. coli W3110 ([5]; full MH pH 7.4) [µg/mL] | MIC S. aureus, 12.5% MHB [6] | MIC S. aureus, Full MHB [6] | further results
1 | VDKPPYLPRPRPPRRIYNR [sr3Nterm-Onc] (VDKPPYLPRPRPPRRIYNR-NH2; also: residues 1-3 stereorandomized (1:1 L/D mixture)) | >1000 | >1000 | 8 | 64 | 8 | 64 | 2 | 16 | 2 | 16 | 16 | > 64 | 16 | >64 | 2 | 16 | 2 | 16 | >64 / 64 μg/mL | >64 / 64 μg/mL | MIC S. aureus COL (MRSA) ([6]; 12.5% MH pH 7.4): 64 µg/mL; MIC S. aureus COL (MRSA) ([6]; full MH pH 7.4): >64 µg/mL
2 | VDKPPYLPRPRPPRRIYNR [sr6Cterm-Onc] (VDKPPYLPRPRPPRRIYNR-NH2; also: residues 14-19 stereorandomized (1:1 L/D mixture)) | >1000 | >1000 | 4 | 32 | 4 | 32 | 1 | 4 | 1 | 4 | 4 | 64 | 4 | 64 | 1 | 8 | 1 | 8 | > 16 µg/mL | > 64 µg/mL | MIC S. aureus COL (MRSA) ([6]; 12.5% MH pH 7.4): >16 µg/mL; MIC S. aureus COL (MRSA) ([6]; full MH pH 7.4): >64 µg/mL
3 | VDKPPYLPRPRPPRRIYNR [sr7Cterm-Onc] (VDKPPYLPRPRPPRRIYNR-NH2; also: residues 13-19 stereorandomized (1:1 L/D mixture)) | >1000 | >1000 | 4 | 32 | 4 | 32 | 1 | 4 | 1 | 4 | 4 | 64 | 4 | 64 | 1 | 8 | 1 | 8 | > 16 µg/mL | > 64 µg/mL | MIC S. aureus COL (MRSA) ([6]; 12.5% MH pH 7.4): >16 µg/mL; MIC S. aureus COL (MRSA) ([6]; full MH pH 7.4): >64 µg/mL
4 | VDKPPYLPRPRPPRRIYNR [sr10Cterm-Onc] (VDKPPYLPRPRPPRRIYNR-NH2; also: residues 10-19 stereorandomized (1:1 L/D mixture)) | >1000 | >1000 | 4 | 64 | 4 | 64 | 4 | 8 | 4 | 8 | 8 | 64 | 8 | 64 | 4 | 16 | 4 | 16 | 32 µg/mL | > 64 µg/mL | MIC S. aureus COL (MRSA) ([6]; 12.5% MH pH 7.4): 32 µg/mL; MIC S. aureus COL (MRSA) ([6]; full MH pH 7.4): >64 µg/mL
5 | VDKPPYLPRPRPPRRIYNR [sr11Cterm-Onc] (VDKPPYLPRPRPPRRIYNR-NH2; also: residues 9-19 stereorandomized (1:1 L/D mixture)) | >1000 | >1000 | 4 | 32 | 4 | 32 | 4 | 16 | 4 | 16 | 8 | > 64 | 8 | >64 | 4 | 16 | 4 | 16 | >64 / 64 μg/mL | >64 / 64 μg/mL | MIC S. aureus COL (MRSA) ([6]; 12.5% MH pH 7.4): 64 µg/mL; MIC S. aureus COL (MRSA) ([6]; full MH pH 7.4): >64 µg/mL
6 | VDKPPYLPRPRPPRRIYNR [sr12Cterm-Onc] (VDKPPYLPRPRPPRRIYNR-NH2; also: residues 8-19 stereorandomized (1:1 L/D mixture)) | >1000 | >1000 | 8 | 32 | 8 | 32 | 8 | 16 | 8 | 16 | 8 | > 64 | 8 | >64 | 8 | 16 | 8 | 16 | >64 / 64 μg/mL | >64 / 64 μg/mL | MIC S. aureus COL (MRSA) ([6]; 12.5% MH pH 7.4): 64 µg/mL; MIC S. aureus COL (MRSA) ([6]; full MH pH 7.4): >64 µg/mL

From paper PMC11571207, “Stereorandomized Oncocins with Preserved Ribosome Binding and Antibacterial Activity” (Journal of Medicinal Chemistry, 2024)
